For 18 compounds, EC50 results are on record in BindingDB's records for PubMed 35315650 (Korea Research Institute of Chemical Technology, 2022).

The assay can be described thus: Agonist activity at STING in human wild-type THP1-Dual cells co-expressing ISRE reporter assessed as IRF-mediated immune response incubated for 24 hrs by QUANTI Luc based microplate reader method.
For the compound `CCn1nc(C)cc1C(=O)Nc1nc2cc(C(N)=O)cc(OC)c2n1CCCCNC(=O)OC(C)(C)C`, the EC50 came to 0.804 µM.

Regarding `CCn1nc(C)cc1C(=O)Nc1nc2cc(C(N)=O)cc(OC)c2n1C/C=C/Cn1c(NC(=O)c2cc(C)nn2CC)nc2cc(C(N)=O)cc(OCCCNC(=O)OC(C)(C)C)c21`, the EC50 was 0.000354 µM.

Regarding `CCn1nc(C)cc1C(=O)NCCCOc1cc(C(N)=O)cc2nc(NC(=O)c3cc(C)nn3CC)n(C)c12`, the EC50 was determined as 6.22 µM.

With `CCn1nc(C)cc1C(=O)Nc1nc2cc(C(N)=O)ccc2n1CCCCNC(=O)OC(C)(C)C`, the EC50 turned out to be 6.55 µM.

For the compound `CCn1nc(C)cc1C(=O)Nc1nc2cc(C(N)=O)ccc2n1CCCNC(=O)OC(C)(C)C`, the EC50 came out at 48.6 µM.

On to `CCn1nc(C)cc1C(=O)Nc1nc2cc(C(N)=O)ccc2n1CCCCNC(=O)c1cc(C)nn1C`, for which the concentration giving a half-maximal response (EC50) is 30.1 µM.

On to `CCn1nc(C)cc1C(=O)Nc1nc2cc(C(N)=O)ccc2n1CCCCNC(=O)c1ccccc1`, for which the 50% effective concentration (EC50) came out at 28.6 µM.

`Cn1cc(C(=O)Nc2nc3cc(C(N)=O)ccc3n2CCCCn2c(NC(=O)c3cn(C)nc3C(F)(F)F)nc3cc(C(N)=O)ccc32)c(C(F)(F)F)n1`: the EC50 was found to be 17.6 µM.

As for `CCn1nc(C)cc1C(=O)Nc1nc2cc(C(N)=O)cc(OC)c2n1C/C=C/Cn1c(NC(=O)c2cc(C)nn2CC)nc2cc(C(N)=O)cc(OCCCN)c21`, the EC50 was 0.00162 µM.

For `CCn1nc(C)cc1C(=O)Nc1nc2cc(C(N)=O)cc(OC)c2n1C/C=C/CNC(=O)OC(C)(C)C`, the EC50 worked out at 4.6 µM.

As for `CCn1nc(C)cc1C(=O)NCCCOc1cc(C(N)=O)cc2nc(NC(=O)c3cc(C)nn3CC)n(C/C=C/Cn3c(NC(=O)c4cc(C)nn4CC)nc4cc(C(N)=O)cc(OC)c43)c12`, the EC50 turned out to be 4e-06 µM.

Take `CCn1nc(C)cc1C(=O)NCCCCn1c(NC(=O)c2cc(C)nn2CC)nc2cc(C(N)=O)ccc21`: the EC50 stood at 9.12 µM.

In the case of `CCn1nc(C)cc1C(=O)NCCCn1c(NC(=O)c2cc(C)nn2CC)nc2cc(C(N)=O)ccc21`, the EC50 was 39.1 µM.

On to `CCn1nc(C)cc1C(=O)Nc1nc2cc(C(N)=O)ccc2n1CCCCCNC(=O)OC(C)(C)C`, for which the EC50 came out at 1.69 µM.

Turning to `CCn1nc(C)cc1C(=O)Nc1nc2cc(C(N)=O)ccc2n1CCCCNC(=O)C(C)(C)C`, the EC50 turned out to be 51.1 µM.

For `CCn1nc(C)cc1C(=O)/N=c1\[nH]c2cc(C(N)=O)ccc2n1CCCCn1/c(=N/C(=O)c2cc(C)nn2CC)[nH]c2cc(C(N)=O)ccc21`, the EC50 worked out at 1.23 µM.

As for `CCn1nc(C)cc1C(=O)Nc1nc2cc(C(N)=O)cc(OCCCN)c2n1C`, the EC50 was determined as 29.8 µM.

Turning to `CCn1nc(C)cc1C(=O)Nc1nc2cc(C(N)=O)cc(OCCCNC(=O)OC(C)(C)C)c2n1C`, the EC50 came to 1.66 µM.
